We go through five compounds from patent US11225657B2, “Synthetic auxotrophs with ligand dependent essential genes for biosafety” (priority 2015, dated 2022).

Common to all, as to assay type: cell-based, E. coli
Assay [1] concerns metG.GL15. As to the kind of experiment: Chemical complementation of growth of ligand-dependent strain metG.GL15. Particulars: panel of 30 additional ligands. As for the experimental part:
(§1) A second positive selection at block 140 was performed in order to enrich for desirable ligand-dependent strains. Library members surviving the negative selection were collected, residual penicillin was washed away, and cells were spread onto LB agar plates containing complementing chemicals. Resulting colonies were screened at block 150 for ligand-dependent growth by replica-spotting onto LB agar plates with and without complementing chemicals. Strains that grew only in the presence of chemicals were chosen for further characterization.
(§2) In this example, the ligand-dependent strains were generated for 5 essential genes (pheS, dnaN, tyrS, metG, and adk). Each ligand-dependent strain carried between 3 and 7 mutations at the targeted essential gene (Table 1). A mixture of 4 small molecules was used to generate the ligand-dependent strains. Each resulting strain was tested against each small molecule individually. The most promiscuous strain, metG.GL15, was complemented by all 4 ligands. Other mutants responded to 2 or 3 ligands. Additionally, escape frequency was measured on media lacking any of the 4 ligands. The highest escape frequency was 8×10^−4 for adk.GL1, while the lowest escape frequency was 3×10^−9 for pheS.GL2.
To characterize the specificity of the produced ligand-dependent strains towards ligands, all strains were examined for complementation by a panel of 30 additional ligands. […]

Assay [2] has as its system pheS.GL2. The assay can be described thus: Chemical complementation of growth of ligand-dependent strain pheS.GL2. Particulars: LB agar plates. As for the experimental part:
as §1, §2
The ligand-dependent strain pheS.GL2 was derived from a directed evolution procedure using both targeted and random mutagenesis. […]

Assay [3] concerns tyrS.GL7. As to the kind of experiment: Chemical complementation of growth of ligand-dependent strain tyrS.GL7. As for the experimental part: as §1, §2
The ligand-dependent strain tyrS.GL7 and metG.GL15 were generated in under 2 weeks with a single cycle of protein engineering. […]

In assay [4] the test system is dnaN-intein-iFKBP fusion mutants. As to the kind of experiment: Growth of dnaN-intein-iFKBP mutants with complementing ligands at 42° C. Particulars: LB agar. The protocol: A variety of saturation mutagenesis libraries targeting a combination of surface exposed and semi-buried residues on the intein structure were then designed, ignoring the iFKBP domain as well as the dnaN sequence. The resulting plasmid library was then transformed into dnaN-temperature sensitive strains (dnaN-temp sensitive on the genome). The resulting transformants were grown on LB agar plates containing 5 chemicals: rapamycin, saccharin, acetaminophen, raspberry ketone, and benzothiazole. These chemicals were chosen based on being either useful commercially or likely to result in the desired phenotype. As before the library was grown at 42° C. so that the strains would have to rely on the plasmid borne mutagenized copies of the dnaN-intein-iFKBP fusion proteins.
The next day the libraries were scraped, and transferred to fresh media for a penicillin technique counter selection performed exactly as described before with FIG. 2 and FIG. 3. After the negative selection, intact cells were mini-prepped and the DNA was re-transformed into fresh cells and the transformants were grown on the same chemicals as indicated above at 42° C.
The next day, colonies were picked, serially diluted tenfold and spotted onto plain LB agar plates and LB agar plates containing a pool of candidate complementing ligands and grown at 42° C. (to uncover phenotype of plasmid born copy of dnaN). […]

In assay [5] the test system is rapamycin-dependent mutant (uniRapR insertion in dnaN). As to the kind of experiment: Ligand-dependent growth of rapamycin-dependent dnaN-uniRapR insertion mutant at 42° C. Particulars: for nonspecific chemical complementation (growth): plates with ligand instead of rapamycin. The text has this:
Starting with a plasmid borne copy of wild type dnaN under constitutive expression, the uniRapR domain was inserted into 4 candidate insertion sites with a 3 amino acid linker library upstream and downstream of the uniRapR domain. The resulting libraries (all four insertion sites with their linker libraries) were pooled and transformed into a strain of E. coli with a mutation on the genomic copy of dnaN that made the protein temperature sensitive (dnaN protein from genome is non-functional at 42° C. and it is bactericidal lethal).
The transformants were grown at 42° C. (lethal temperature for genomic copy so as to force bacteria to rely on the plasmid copies with the uniRapR insertions) as well as with the addition of 10 uM rapamycin (to complement the function of any rapamycin-dependent insertional fusion dnaN mutants) and allowed to grow overnight.
The extracted plasmid DNA was re-transformed into fresh dnaN-temperature sensitive strains and grown on LB agar supplemented with rapamycin at 42° C. The next day colonies were picked and re-spotted onto LB agar plates with or without rapamycin and grown at 42° C. […] The biological replicates of a 10-fold serial dilution of the rapamycin-dependent mutant grown without rapamycin (clear columns) or with 2.5 micromolar rapamycin (columns with growth) were prepared. All growth took place at 42° C.

On to `O=C(O)Cc1c[nH]c2ccccc12` [Indole-3-acetic acid], for which the complementation of growth result in assay [1] is reported as “complement”.

As to `COC(=O)[C@@H](N)Cc1c[nH]cn1` [L-histidine methyl ester], in assay [1], the complementation of growth entry was “complement”.

In the case of `c1ccc2scnc2c1` [benzothiazole], the complementation of growth entry in assay [2] (1 mM benzothiazole) was “strongly complemented”. In addition, in assay [3], the “concentration range of dose-dependent growth” value was in the range of 250 to 1000 µM. The “colony size relative to no ligand (by eye)” value in assay [4] is 2-5 times. The “nonspecific chemical complementation (growth)” value in assay [5] is listed as “no growth was detected”.

Consider `c1ccc2[nH]ccc2c1` [indole], for which the complementation of growth result in assay [2] (0.5 mM indole) is on record as “strongly complemented”; in assay [3] it was “complemented”. For the same compound, in assay [5], the “nonspecific chemical complementation (growth)” value is “no growth was detected”.

Take `CO[C@H]1C[C@@H]2CC[C@@H](C)[C@@](O)(O2)C(=O)C(=O)N2CCCC[C@H]2C(=O)O[C@H]([C@H](C)C[C@@H]2CC[C@@H](O)[C@H](OC)C2)CC(=O)[C@H](C)/C=C(\C)[C@@H](O)[C@@H](OC)C(=O)[C@H](C)C[C@H](C)/C=C/C=C/C=C/1C` [rapamycin]: the “rapamycin concentration of highest activity (dose-dependent growth)” value in assay [5] (42° C.) is 1 to 10 µM.
